Values of other authors as cited in patent publication US20020081339A1, “Treatment of inoperable tumors by stereotactic injection of microspheres” (priority 2000, published 2002).

Conditions: hydrophilic molecule

O=c1[nH]cc(F)c(=O)[nH]1 [5-FU, 5-fluorouracil]
crossing of the blood-brain barrier: crosses the blood-brain barrier very weakly
